According to PubChem BioAssay AID1745844 (Carcinogenic Potency Database (CPDB), 2022):
“And” between values parts separate entries of the source, which are not always exact repeats. Equal values may be shown once. The source made the active and inactive calls. The rule behind the calls is not given here.

System: rodent lifetime carcinogenesis bioassay, tumor incidence TD50
Assay: chronic cancer bioassays in animals – CPDB, compiled studies (AID 1745844)

`CN(N=O)c1ccc(F)cc1` showed a TD50 (rat, strain Fischer 344, males, in drinking water, site: esophagus, lesion: several types, types named in the paper, dosed 50 weeks, study length 114 weeks) of 0.255 mg/kg/day and a TD50 (rat, strain Fischer 344, males, in drinking water, site: liver, lesion: hyperplastic nodule, dosed 50 weeks, study length 114 weeks) of 10.3 mg/kg/day.

For `c1cc(OCC2CO2)cc(OCC2CO2)c1` (stereo not given), the TD50 (mouse, strain B6C3F1, females, by gavage, site: any site (literature study), lesion: several types, types named in the paper, dosed 103 weeks, study length 105 weeks) was 32.3 mg/kg/day, the TD50 (mouse, strain B6C3F1, females, by gavage, site: liver, lesion: hepatocellular adenoma + hepatocellular carcinoma + neoplastic nodule, dosed 103 weeks, study length 105 weeks) was 169 mg/kg/day and the TD50 (mouse, strain B6C3F1, females, by gavage, site: liver, lesion: hepatocellular carcinoma, dosed 103 weeks, study length 105 weeks) was 221 mg/kg/day. The TD50 (mouse, strain B6C3F1, females, by gavage, site: lung, lesion: alveolar/bronchiolar adenoma + alveolar/bronchiolar carcinoma, dosed 103 weeks, study length 105 weeks) was 4790 mg/kg/day, the TD50 (mouse, strain B6C3F1, females, by gavage, site: stomach, lesion: papillomatosis + squamous-cell carcinoma + squamous-cell papilloma, dosed 103 weeks, study length 105 weeks) was 17.9 mg/kg/day and the TD50 (mouse, strain B6C3F1, females, by gavage, site: stomach, lesion: papillomatosis + squamous-cell papilloma, dosed 103 weeks, study length 105 weeks) was 48.2 mg/kg/day. The TD50 (mouse, strain B6C3F1, females, by gavage, site: stomach, lesion: squamous-cell carcinoma, dosed 103 weeks, study length 105 weeks) was 36.3 mg/kg/day, the TD50 (mouse, strain B6C3F1, males, by gavage, site: any site (literature study), lesion: several types, types named in the paper, dosed 103 weeks, study length 104 weeks) was 36.6 mg/kg/day and the TD50 (mouse, strain B6C3F1, males, by gavage, site: liver, lesion: hepatocellular adenoma + hepatocellular carcinoma + neoplastic nodule, dosed 103 weeks, study length 104 weeks) was 84.7 mg/kg/day. For the same molecule, the TD50 (mouse, strain B6C3F1, males, by gavage, site: lung, lesion: alveolar/bronchiolar adenoma + alveolar/bronchiolar carcinoma, dosed 103 weeks, study length 104 weeks) was 1350 mg/kg/day, the TD50 (mouse, strain B6C3F1, males, by gavage, site: stomach, lesion: papillomatosis + squamous-cell carcinoma + squamous-cell papilloma, dosed 103 weeks, study length 104 weeks) was 37.8 mg/kg/day and the TD50 (mouse, strain B6C3F1, males, by gavage, site: stomach, lesion: papillomatosis + squamous-cell papilloma, dosed 103 weeks, study length 104 weeks) was 145 mg/kg/day. The TD50 (mouse, strain B6C3F1, males, by gavage, site: stomach, lesion: squamous-cell carcinoma, dosed 103 weeks, study length 104 weeks) was 55.5 mg/kg/day, the TD50 (rat, strain Fischer 344, females, by gavage, site: any site (literature study), lesion: several types, types named in the paper, dosed 103 weeks, study length 104 weeks) was 8.53 mg/kg/day and 16 mg/kg/day and the TD50 (rat, strain Fischer 344, females, by gavage, site: forestomach, lesion: squamous-cell carcinoma + squamous-cell papilloma, dosed 103 weeks, study length 104 weeks) was 3.53 mg/kg/day. It also gave a TD50 (rat, strain Fischer 344, females, by gavage, site: forestomach, lesion: squamous-cell carcinoma, dosed 103 weeks, study length 104 weeks) of 5.93 mg/kg/day, a TD50 (rat, strain Fischer 344, females, by gavage, site: forestomach, lesion: squamous-cell papilloma, dosed 103 weeks, study length 104 weeks) of 8.95 mg/kg/day and a TD50 (rat, strain Fischer 344, females, by gavage, site: liver, lesion: hepatocellular adenoma + hepatocellular carcinoma + neoplastic nodule, dosed 103 weeks, study length 104 weeks) of 174 mg/kg/day. The TD50 (rat, strain Fischer 344, females, by gavage, site: stomach, lesion: squamous-cell carcinoma + squamous-cell papilloma, dosed 103 weeks, study length 104 weeks) was 4.47 mg/kg/day, the TD50 (rat, strain Fischer 344, females, by gavage, site: stomach, lesion: squamous-cell carcinoma, dosed 103 weeks, study length 104 weeks) was 5.1 mg/kg/day and the TD50 (rat, strain Fischer 344, females, by gavage, site: stomach, lesion: squamous-cell papilloma, dosed 103 weeks, study length 104 weeks) was 45.5 mg/kg/day. It also gave a TD50 (rat, strain Fischer 344, males, by gavage, site: any site (literature study), lesion: several types, types named in the paper, dosed 98 weeks, study length 104 weeks) of 2.43 mg/kg/day, a TD50 (rat, strain Fischer 344, males, by gavage, site: any site (literature study), lesion: several types, types named in the paper, dosed 103 weeks, study length 104 weeks) of 4.61 mg/kg/day and a TD50 (rat, strain Fischer 344, males, by gavage, site: forestomach, lesion: squamous-cell carcinoma + squamous-cell papilloma, dosed 103 weeks, study length 104 weeks) of 2.33 mg/kg/day. For the same molecule, the TD50 (rat, strain Fischer 344, males, by gavage, site: forestomach, lesion: squamous-cell carcinoma, dosed 103 weeks, study length 104 weeks) was 2.73 mg/kg/day, the TD50 (rat, strain Fischer 344, males, by gavage, site: forestomach, lesion: squamous-cell papilloma, dosed 103 weeks, study length 104 weeks) was 8.16 mg/kg/day and the TD50 (rat, strain Fischer 344, males, by gavage, site: liver, lesion: hepatocellular adenoma + hepatocellular carcinoma + neoplastic nodule, dosed 98 weeks, study length 104 weeks) was 114 mg/kg/day. It also gave a TD50 (rat, strain Fischer 344, males, by gavage, site: liver, lesion: hepatocellular adenoma + hepatocellular carcinoma + neoplastic nodule, dosed 103 weeks, study length 104 weeks) of 640 mg/kg/day, a TD50 (rat, strain Fischer 344, males, by gavage, site: pituitary gland, lesion: adenoma, NOS, dosed 98 weeks, study length 104 weeks) of 12.2 mg/kg/day and a TD50 (rat, strain Fischer 344, males, by gavage, site: stomach, lesion: squamous-cell carcinoma + squamous-cell papilloma, dosed 98 weeks, study length 104 weeks) of 2.89 mg/kg/day. The TD50 (rat, strain Fischer 344, males, by gavage, site: stomach, lesion: squamous-cell carcinoma, dosed 98 weeks, study length 104 weeks) was 3.06 mg/kg/day, the TD50 (rat, strain Fischer 344, males, by gavage, site: stomach, lesion: squamous-cell papilloma, dosed 98 weeks, study length 104 weeks) was 24.7 mg/kg/day and the TD50 (rat, strain Fischer 344, males, by gavage, site: testis, lesion: interstitial-cell tumor, dosed 98 weeks, study length 104 weeks) was 2.35 mg/kg/day.

With `Cc1ccc(-c2cc(C(F)(F)F)nn2-c2ccc(S(N)(=O)=O)cc2)cc1` the carcinogen call (rat, strain Fischer 344, males, in feed, site: colon, lesion: one or several types, types not named, dosed 53 weeks, study length 53 weeks) was “negative (inactive)”.

`CCCN(N)C=O` gave a TD50 (mouse, strain Swiss albino, females, in drinking water, site: gall bladder, lesion: adenoma, dosed 75 weeks, study length 79 weeks) of 497 mg/kg/day, a TD50 (mouse, strain Swiss albino, females, in drinking water, site: gall bladder, lesion: several types, types named in the paper, dosed 75 weeks, study length 79 weeks) of 444 mg/kg/day and a TD50 (mouse, strain Swiss albino, females, in drinking water, site: liver, lesion: several types, types named in the paper, dosed 75 weeks, study length 79 weeks) of 215 mg/kg/day. The TD50 (mouse, strain Swiss albino, females, in drinking water, site: lung, lesion: several types, types named in the paper, dosed 75 weeks, study length 79 weeks) was 8.74 mg/kg/day, the TD50 (mouse, strain Swiss albino, males, in drinking water, site: lung, lesion: several types, types named in the paper, dosed 51 weeks, study length 61 weeks) was 8.84 mg/kg/day and the TD50 (mouse, strain Swiss albino, males, in drinking water, site: preputial gland, lesion: several types, types named in the paper, dosed 51 weeks, study length 61 weeks) was 60.4 mg/kg/day. It also gave a TD50 (mouse, strain Swiss albino, males, in drinking water, site: preputial gland, lesion: squamous-cell carcinoma, dosed 51 weeks, study length 61 weeks) of 75.7 mg/kg/day.

With `O=CC(O)C(O)C(O)C(O)CO` (stereo not given) the carcinogen call (mouse, strain AP Alderly Park, females, in feed, site: any site (literature study), lesion: several types, types named in the paper, dosed 100 weeks, study length 100 weeks) was “negative (inactive)”, the TD50 (mouse, strain AP Alderly Park, females, in feed, site: liver, lesion: hepatoma, dosed 100 weeks, study length 100 weeks) was 538000 mg/kg/day (inactive) and the carcinogen call (mouse, strain AP Alderly Park, females, in feed, site: lung, lesion: adenoma, dosed 100 weeks, study length 100 weeks) was “negative (inactive)”. For the same molecule, the TD50 (mouse, strain AP Alderly Park, males, in feed, site: any site (literature study), lesion: several types, types named in the paper, dosed 100 weeks, study length 100 weeks) was 132000 mg/kg/day (inactive), the carcinogen call (mouse, strain AP Alderly Park, males, in feed, site: liver, lesion: hepatoma, dosed 100 weeks, study length 100 weeks) was “negative (inactive)” and the carcinogen call (mouse, strain AP Alderly Park, males, in feed, site: lung, lesion: adenoma, dosed 100 weeks, study length 100 weeks) was “negative (inactive)”. For the same molecule, the TD50 (rat, strain AP Alderly Park, females, in feed, site: any site (literature study), lesion: several types, types named in the paper, dosed 104 weeks, study length 104 weeks) was 7790 mg/kg/day (inactive), the carcinogen call (rat, strain AP Alderly Park, females, in feed, site: liver, lesion: one or several types, types not named, dosed 104 weeks, study length 104 weeks) was “negative (inactive)” and the carcinogen call (rat, strain AP Alderly Park, males, in feed, site: any site (literature study), lesion: several types, types named in the paper, dosed 104 weeks, study length 104 weeks) was “negative (inactive)”. For the same molecule, the TD50 (rat, strain AP Alderly Park, males, in feed, site: liver, lesion: hepatoma, dosed 104 weeks, study length 104 weeks) was 133000 mg/kg/day (inactive).

`CC(O)CN(C)N=O` (stereo not given) was tested, and the carcinogen call (rat, strain F344/DuCrj, males, in drinking water, site: liver, lesion: one or several types, types not named, dosed 40 weeks, study length 78 weeks) was “negative (inactive)”, the TD50 (rat, strain Fischer 344, females, in drinking water, site: esophagus, lesion: carcinoma, dosed 30 weeks, study length 75 weeks) was 0.408 mg/kg/day and the TD50 (rat, strain Fischer 344, females, in drinking water, site: esophagus, lesion: several types, types named in the paper, dosed 30 weeks, study length 75 weeks) was 0.105 mg/kg/day. It also gave a TD50 (rat, strain Fischer 344, females, in drinking water, site: liver, lesion: hepatocellular carcinoma, dosed 30 weeks, study length 75 weeks) of 0.895 mg/kg/day, a TD50 (rat, strain Fischer 344, females, in drinking water, site: liver, lesion: neoplastic nodule, dosed 30 weeks, study length 75 weeks) of 2.54 mg/kg/day and a TD50 (rat, strain Fischer 344, females, in drinking water, site: liver, lesion: several types, types named in the paper, dosed 30 weeks, study length 75 weeks) of 0.798 mg/kg/day. It also gave a TD50 (rat, strain Fischer 344, females, in drinking water, site: lung, lesion: several types, types named in the paper, dosed 30 weeks, study length 75 weeks) of 0.408 mg/kg/day, a TD50 (rat, strain Fischer 344, females, in drinking water, site: nasal cavity, lesion: several types, types named in the paper, dosed 30 weeks, study length 75 weeks) of 0.0486 mg/kg/day and a TD50 (rat, strain Fischer 344, males, in drinking water, site: esophagus, lesion: several types, types named in the paper, dosed 30 weeks, study length 75 weeks) of 0.17 mg/kg/day. The TD50 (rat, strain Fischer 344, males, in drinking water, site: nasal cavity, lesion: several types, types named in the paper, dosed 30 weeks, study length 75 weeks) was 0.0442 mg/kg/day.

For `CC(=O)c1ccc(S(=O)(=O)NC(=O)NC2CCCCC2)cc1`, the carcinogen call (mouse, strain B6C3F1, females, in feed, site: any site (literature study), lesion: several types, types named in the paper, dosed 103 weeks, study length 107 weeks) was “negative (inactive)”, the TD50 (mouse, strain B6C3F1, males, in feed, site: any site (literature study), lesion: several types, types named in the paper, dosed 103 weeks, study length 107 weeks) was 2370 mg/kg/day (inactive) and the carcinogen call (rat, strain Fischer 344, females, in feed, site: any site (literature study), lesion: several types, types named in the paper, dosed 103 weeks, study length 106 weeks) was “negative (inactive)”. The TD50 (rat, strain Fischer 344, males, in feed, site: all sites, lesion: leukemia, dosed 103 weeks, study length 105 weeks) was 527 mg/kg/day (inactive), the TD50 (rat, strain Fischer 344, males, in feed, site: any site (literature study), lesion: several types, types named in the paper, dosed 103 weeks, study length 105 weeks) was 2120 mg/kg/day and the TD50 (rat, strain Fischer 344, males, in feed, site: liver, lesion: hepatocellular adenoma + hepatocellular carcinoma + neoplastic nodule, dosed 103 weeks, study length 105 weeks) was 16600 mg/kg/day.

For `NC(=S)C(N)=S`, the TD50 (rat, strain Charles River CD (Sprague-Dawley), females, in feed, site: mammary gland, lesion: one or several types, types not named, dosed 78 weeks, study length 104 weeks) was 12.6 mg/kg/day.
